≈ marks a conversion by molar mass, not a printed value. Like-named read-outs stand apart in the source and are kept apart here.
What was measured:
Type in all cases: cell-based
A. baumannii ATCC15308 = experiment: MIC determination, broth microdilution (CLSI); details: Acinetobacter baumannii, ATCC15308, strain 9
S. pneumoniae 113 = experiment: MIC determination, broth microdilution (CLSI); details: Streptococcus pneumoniae, 113, strain 13; broth microdilution; read-out: MIC strain 13 (S. pneumoniae 113)
E. cloacae 34654 = experiment: MIC determination, broth microdilution (CLSI); details: Enterobacter cloacae, 34654, strain 3
S. aureus 133 = experiment: MIC determination, broth microdilution (CLSI)
[1] = system: P. aeruginosa 2297-con (AmpC derepressed); experiment: MIC determination, broth microdilution (CLSI); details: Pseudomonas aeruginosa, read-out: strain 8 MIC, strain 8
E. coli J62 = experiment: MIC determination, broth microdilution (CLSI); details: Escherichia coli, J62, strain 17; broth microdilution; read-out: MIC strain 17 (E. coli J62)
M. morganii 126/3048 = experiment: MIC determination, broth microdilution (CLSI); details: Morganella morganii, 126/3048, strain 5
E. coli J62-TEM-3 = experiment: MIC determination, broth microdilution (CLSI); details: Escherichia coli, J62TEM3, read-out: MIC strain 18 (E. coli J62-TEM-3), strain 18; broth microdilution
E. coli ATCC25922 = experiment: MIC determination, broth microdilution (CLSI); details: Escherichia coli, ATCC25922, strain 1
[2] = system: P. aeruginosa 2297 (AmpC wt); experiment: MIC determination, broth microdilution (CLSI); details: Pseudomonas aeruginosa, strain 7
P. aeruginosa PAO1 = experiment: MIC determination, broth microdilution (CLSI); details: Pseudomonas aeruginosa, PAO1, strain 6
C. perfringens DSM756 = experiment: microbe, parasite or virus in culture; details: Clostridium perfringens, DSM756, read-out: MIC strain 16 (C. perfringens DSM756), strain 16; broth microdilution
Bacteria = experiment: MIC determination in combination with β-lactamase inhibitors (constant 4 μg/mL)
S. maltophilia ICB7569 = experiment: MIC determination, broth microdilution (CLSI); details: Stenotrophomonas maltophilia, ICB7569, strain 10
K. pneumoniae 60 = experiment: MIC determination, broth microdilution (CLSI); details: Klebsiella pneumoniae, 60, strain 2
C. freundii K21/3034 = experiment: MIC determination, broth microdilution (CLSI); details: Citrobacter freundii, K21/3034, strain 4
H. influenzae ATCC 49247 = experiment: MIC determination, broth microdilution (CLSI); details: Haemophilus influenzae, ATCC49247, strain 12; broth microdilution; read-out: MIC strain 12 (H. influenzae ATCC 49247)
B. fragilis 6688 = experiment: MIC determination, broth microdilution (CLSI); details: Bacteroides fragilis, 6688, strain 15; broth microdilution; read-out: MIC strain 15 (B. fragilis 6688)
[3] = Staphylococcus aureus, 133, strain 11, read-out: strain 11 MIC
[4] = Staphylococcus aureus, 133, strain 14, broth microdilution, read-out: MIC strain 14 (S. aureus 133)

Row | Structure (SMILES) | MIC (A. baumannii ATCC15308) [µg/mL] | MIC (S. pneumoniae 113) [µg/mL] | MIC (E. cloacae 34654) [µg/mL] | MIC (S. aureus 133; [3]) [µg/mL] | MIC [1] [µg/mL] | MIC (E. coli J62) [µg/mL] | MIC (M. morganii 126/3048) [µg/mL] | MIC (E. coli J62-TEM-3) [µg/mL] | MIC (E. coli ATCC25922) [µg/mL] | MIC [2] [µg/mL] | MIC (P. aeruginosa PAO1) [µg/mL] | MIC (C. perfringens DSM756) [µg/mL] | MIC strain 19 (E. coli J62-TEM-3 + 4 μg/mL clavulanic acid) (Bacteria) | MIC strain 20 (E. coli J62-TEM-3 + 4 μg/mL sulbactam) (Bacteria) | MIC strain 21 (E. coli J62-TEM-3 + 4 μg/mL tazobactam) (Bacteria) | MIC (S. maltophilia ICB7569) [µg/mL] | MIC (K. pneumoniae 60) [µg/mL] | MIC (C. freundii K21/3034) [µg/mL] | MIC (H. influenzae ATCC 49247) [µg/mL] | MIC (B. fragilis 6688) [µg/mL] | also measured
1 | CC1(C)[C@H](NC(=O)/C(=N\OCCOc2ccc(C(=N)NC3CNNC3)cc2)c2csc(N)n2)C(=O)N1OS(=O)(=O)O [Example 92] | 4 (≈ 6.54 µM) | ≤ 0.063 | 1 (≈ 1.63 µM) | ≤ 0.063 | 8 (≈ 13.1 µM) | 1 (≈ 1.63 µM) | 0.5 (≈ 0.817 µM) | 32 (≈ 52.3 µM) | 0.5 (≈ 0.817 µM) | 8 (≈ 13.1 µM) | 8 (≈ 13.1 µM) | 2 (≈ 3.27 µM) | 0.5 µg/mL | 0.5 µg/mL | 0.5 µg/mL | 32 (≈ 52.3 µM) | 0.5 (≈ 0.817 µM) | 0.5 (≈ 0.817 µM) | 0.125 (≈ 0.204 µM) | 8 (≈ 13.1 µM) | MIC (S. aureus 133; [4]): 8 µg/mL (≈ 13.1 µM)
2 | CC(C)(N)CNC(=N)c1ccc(OC[C@H](O/N=C(\C(=O)N[C@@H]2C(=O)N(OS(=O)(=O)O)C2(C)C)c2csc(N)n2)C(=O)O)cc1 [Example 94, (2S)-3-{4-[N-(2-Amino-2-methylpropyl)carbamimidoyl]phenoxy}-2-({[(1Z)-1-(2-amino-1,3-thiazol-4-yl)-2-{[(3S)-2,2-dimethyl-4-oxo-1-(sulfooxy)azetidin-3-yl]amino}-2-oxoethylidene]amino}oxy)propanoic acid] | 2 (≈ 3.05 µM) | 0.5 (≈ 0.761 µM) | 0.125 (≈ 0.19 µM) | ≤ 0.063 | 2 (≈ 3.05 µM) | 0.25 (≈ 0.381 µM) | 0.125 (≈ 0.19 µM) | 8 (≈ 12.2 µM) | 0.125 (≈ 0.19 µM) | 2 (≈ 3.05 µM) | 2 (≈ 3.05 µM) | 0.5 (≈ 0.761 µM) | 0.125 µg/mL | ≦0.063 mg/L | 0.125 µg/mL | 4 (≈ 6.09 µM) | 0.125 (≈ 0.19 µM) | 0.125 (≈ 0.19 µM) | ≤ 0.063 | 8 (≈ 12.2 µM) | MIC (S. aureus 133; [4]): 32 µg/mL (≈ 48.7 µM)
3 | CNCCNC(=N)c1ccc(OC[C@H](O/N=C(\C(=O)N[C@@H]2C(=O)N(OS(=O)(=O)O)C2(C)C)c2csc(N)n2)C(=O)O)cc1 [Example 95, (2S)-2-({[(1Z)-1-(2-Amino-1,3-thiazol-4-yl)-2-{[(3S)-2,2-dimethyl-4-oxo-1-(sulfooxy)azetidin-3-yl]amino}-2-oxoethylidene]amino}oxy)-3-(4-{N-[2-(methylamino)ethyl]carbamimidoyl}phenoxy)propanoic acid] | 2 (≈ 3.11 µM) | 0.5 (≈ 0.778 µM) | 0.125 (≈ 0.195 µM) | ≤ 0.063 | 2 (≈ 3.11 µM) | 0.125 (≈ 0.195 µM) | ≤ 0.063 | 4 (≈ 6.22 µM) | 0.125 (≈ 0.195 µM) | 2 (≈ 3.11 µM) | 1 (≈ 1.56 µM) | 2 (≈ 3.11 µM) | 0.125 µg/mL | ≦0.063 mg/L | 0.125 µg/mL | 4 (≈ 6.22 µM) | 0.125 (≈ 0.195 µM) | 0.125 (≈ 0.195 µM) | ≤ 0.063 | 8 (≈ 12.4 µM) | –
4 | CC1(C)[C@H](NC(=O)/C(=N\O[C@@H](COc2ccc(C(=N)N[C@@H]3CCNC3)cc2)C(=O)O)c2csc(N)n2)C(=O)N1OS(=O)(=O)O [Example 96] | 1 (≈ 1.53 µM) | 0.5 (≈ 0.764 µM) | ≤ 0.063 | ≤ 0.063 | 1 (≈ 1.53 µM) | 0.125 (≈ 0.191 µM) | ≤ 0.063 | 4 (≈ 6.11 µM) | 0.125 (≈ 0.191 µM) | 1 (≈ 1.53 µM) | 1 (≈ 1.53 µM) | 1 (≈ 1.53 µM) | ≦0.063 mg/L | ≦0.063 mg/L | ≦0.063 mg/L | 4 (≈ 6.11 µM) | ≤ 0.063 | ≤ 0.063 | ≤ 0.063 | 8 (≈ 12.2 µM) | MIC (S. aureus 133; [4]): 32 µg/mL (≈ 48.9 µM)
5 | CC1(C)[C@H](NC(=O)/C(=N\O[C@@H](COc2ccc(C(=N)NC3CCCNC3)cc2)C(=O)O)c2csc(N)n2)C(=O)N1OS(=O)(=O)O (stereo partly drawn) [Example 97, (2S)-2-({[(1Z)-1-(2-Amino-1,3-thiazol-4-yl)-2-{[(3S)-2,2-dimethyl-4-oxo-1-(sulfooxy)azetidin-3-yl]amino}-2-oxoethylidene]amino}oxy)-3-{4-[N-(piperidin-3-yl)carbamimidoyl]phenoxy}propanoic acid] | 1 (≈ 1.5 µM) | 0.5 (≈ 0.748 µM) | 0.125 (≈ 0.187 µM) | ≤ 0.063 | 1 (≈ 1.5 µM) | 0.125 (≈ 0.187 µM) | ≤ 0.063 | 4 (≈ 5.98 µM) | ≤ 0.063 | 1 (≈ 1.5 µM) | 1 (≈ 1.5 µM) | 0.5 (≈ 0.748 µM) | ≦0.063 mg/L | ≦0.063 mg/L | ≦0.063 mg/L | 4 (≈ 5.98 µM) | 0.125 (≈ 0.187 µM) | ≤ 0.063 | ≤ 0.063 | 4 (≈ 5.98 µM) | MIC (S. aureus 133; [4]): 32 µg/mL (≈ 47.9 µM)
6 | CC1(C)[C@H](NC(=O)/C(=N\O[C@@H](COc2ccc(C(=N)NCC3CCCN3)cc2)C(=O)O)c2csc(N)n2)C(=O)N1OS(=O)(=O)O (stereo partly drawn) [Example 98, (2S)-2-({[(1Z)-1-(2-Amino-1,3-thiazol-4-yl)-2-{[(3S)-2,2-dimethyl-4-oxo-1-(sulfooxy)-azetidin-3-yl]amino}-2-oxoethylidene]amino}oxy)-3-{4-[N-(pyrrolidin-2-ylmethyl)carbamimidoyl]phenoxy}propanoic acid] | 1 (≈ 1.5 µM) | 0.5 (≈ 0.748 µM) | 0.125 (≈ 0.187 µM) | ≤ 0.063 | 2 (≈ 2.99 µM) | 0.125 (≈ 0.187 µM) | ≤ 0.063 | 8 (≈ 12 µM) | 0.125 (≈ 0.187 µM) | 2 (≈ 2.99 µM) | 1 (≈ 1.5 µM) | 2 (≈ 2.99 µM) | 0.125 µg/mL | 0.125 µg/mL | 0.125 µg/mL | 4 (≈ 5.98 µM) | 0.125 (≈ 0.187 µM) | 0.125 (≈ 0.187 µM) | ≤ 0.063 | 8 (≈ 12 µM) | MIC (S. aureus 133; [4]): 32 µg/mL (≈ 47.9 µM)

Reference: patent US9556165B2 (priority 2012, dated 2017)
